Assays:
HeLa cells = assay: MTT cytotoxicity, HeLa; format: cell-based, human; settings: 72 h, mean values
Procedure: (§1) All of the cell lines were obtained from the American Type Culture Collection (ATCC, Manassas, VA, USA) and grown in DMEM or RPMI culture medium containing 10% fetal bovine serum (v/v) in 5% CO2 at 37 °C.
(§2) Confluent cells in good state were cultured in 96-well plates (5–10 × 10^4 cells/mL). After cells were attached to the plate, compounds with various concentrations were applied at 37 °C for 72 h. Then, the cells were incubated with 10 μL of 5 mg/mL MTT reagent at 37 °C for 4 h. The supernatant was removed, and the cells were dissolved in 100 μL dimethyl sulfoxide and shaken for 5 min. Finally, the light absorption (OD) of the dissolved cells was measured at […].

HGC-27 cells [1] = assay: Flow cytometry cell cycle assay; format: cell-based, human; parameters: dose or concentration left out as unconfirmed; settings: 8 h of treatment
Procedure: Flow cytometry analysis was applied for cell cycle detection. Firstly, HGC-27 cell was adjusted to 1 × 10^6/mL, inoculated into a six-well plate and placed in an incubator at 37 °C containing 5% CO2 saturated humidity overnight. After the cells were fully attached to the plate, […] 9u and 9h were administrated to the cells for 8 h. After cells were collected and fixed with 70% ethanol, DAPI was applied to stain the cells at the final concentration of 1 μg/mL; subsequently, on-board testing by flow cytometry (Cytoflex S (Beckman Coulter, Brea, CA, USA)) was conducted.

Nur77 [2] = target: T1, Nur77 (Homo sapiens, UniProt P22736); assay: Nur77 localization by nuclear-cytosol fractionation and immunofluorescence; format: cell-based; settings: HGC-27 cells, 3 h, 10 µM for immunofluorescence
T1 construct: endogenous in cells; host or cells: HGC-27
T1 sequence (P22736 whole entry): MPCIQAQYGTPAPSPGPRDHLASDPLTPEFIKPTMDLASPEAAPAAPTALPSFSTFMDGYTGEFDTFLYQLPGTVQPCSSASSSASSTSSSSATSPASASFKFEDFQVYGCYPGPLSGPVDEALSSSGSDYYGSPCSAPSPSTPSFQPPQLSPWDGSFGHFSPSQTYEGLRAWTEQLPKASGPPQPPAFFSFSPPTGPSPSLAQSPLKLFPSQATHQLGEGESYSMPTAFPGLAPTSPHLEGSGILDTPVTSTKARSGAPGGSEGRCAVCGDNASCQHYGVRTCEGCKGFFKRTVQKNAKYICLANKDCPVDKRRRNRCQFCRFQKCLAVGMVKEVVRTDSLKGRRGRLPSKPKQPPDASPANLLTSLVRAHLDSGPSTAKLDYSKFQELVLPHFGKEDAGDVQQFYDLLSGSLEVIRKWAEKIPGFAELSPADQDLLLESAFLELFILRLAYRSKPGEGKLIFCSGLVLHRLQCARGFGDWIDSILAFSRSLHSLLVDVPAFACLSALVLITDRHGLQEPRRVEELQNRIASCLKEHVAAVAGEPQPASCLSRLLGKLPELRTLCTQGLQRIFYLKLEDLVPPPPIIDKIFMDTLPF
Procedure: Cells in the logarithmic phase of growth were seeded in 6-cm dishes; after, apposition cells were treated with compound 9h for 3 h. The medium was discarded and washed twice with pre-chilled PBS, then the cells were scraped off with a cytoscraper and collected into 1.5 mL centrifuge tubes and centrifuged at 1500 rpm for 3 min. Next, 80 μL of Buffer B (containing 100× protease inhibitor) were added for 20 min in an ice bath, followed by 20 μL of Buffer B containing 1% TritonX-100. The mixture was vortexed for 10 s, centrifuged at 10,000× g for 15 min at 4 °C, the supernatant collected as cytoplasmic proteins and the precipitate as the nuclear fraction. Then, 100 μL of Buffer C containing 0.4% TritonX-100 were added and centrifuged for 15 min at 4 °C, and 100 uL of Buffer C containing 0.4% TritonX-100 were added and vortexed for 30 min at 4 °C, centrifuged at 15,000× g for 15 min at 4 °C, and the supernatant was the nucleus protein.
The cells were inoculated into the culture dish with preplaced treated coverslips, and the coverslips were removed when the cells were close to growing into a monolayer. Then, they were washed twice with PBS and 4% paraformaldehyde was used to fix the cells for 30 min. The cells were permeabilized with 1‰ TritonX-100 for 10 min. […] One drop of blocker containing DAPI dye was added and the slice sealed and this was examined by fluorescence microscopy.

A875 cells = assay: MTT cytotoxicity, A875; format: cell-based; settings: read-out: Cancer Cells IC50, A875
Procedure: (§3) All of the cell lines were obtained from the American Type Culture Collection (ATCC, Manassas, VA, USA) and grown in DMEM or RPMI culture medium containing 10% fetal bovine serum (v/v) in 5% CO2 at 37 °C. Confluent cells in good state were cultured in 96-well plates (5–10 × 10^4 cells/mL). After cells were attached to the plate, compounds with various concentrations were applied at 37 °C for 72 h. […] The supernatant was removed, and the cells were dissolved in 100 μL dimethyl sulfoxide and shaken for 5 min.

HGC-27 cells [3] = assay: MTT cytotoxicity, HGC-27; format: cell-based, human; settings: 72 h, mean values
Procedure: as §1, §2

A549 cells = assay: MTT cytotoxicity, A549; format: cell-based; settings: read-out: Cancer Cells IC50, A549
Procedure: as §3

Nur77 [4] = assay: Western blot of Nur77 expression; format: cell-based, human; settings: HGC-27 cells, concentration gradient
Procedure: (§4) Equal amounts of the lysates were electrophoresed on 10% SDS-PAGE gel and transferred onto PVDF membranes. After blocked with 5% nonfat milk in TBST (50 mM Tris-HCl (pH 7.4), 150 mM NaCl and 0.1% Tween 20) for 1 h, the membranes were incubated with various primary antibodies overnight and secondary antibodies for 3 h, finally detected using an ECL system. The blots were captured with ChemiDoc XRS+System (Bio-Rad, Hercules, CA, USA).

MDA-MB231 cells = assay: MTT cytotoxicity, MDA-MB231; format: cell-based; settings: read-out: Cancer Cells IC50, MDA-MB231
Procedure: as §3

HGC-27 cells [5] = assay: Colony formation assay; format: cell-based, human; settings: treatment for two weeks, 5 μM and 10 μM, dose-dependent
Procedure: HGC-27 cells were cultured in a six-well plate (500 cells/well) and treated with 9u and 9h in 10% serum medium for two weeks, then fixed with methanol at room temperature and stained with 0.1% crystal violet, and images were scanned with a scanner.

MCF-7 cells = assay: MTT cytotoxicity, MCF-7; format: cell-based, human; settings: 72 h, mean values
Procedure: as §1, §2

H460 cells = assay: MTT cytotoxicity, H460; format: cell-based; settings: read-out: Cancer Cells IC50, H460
Procedure: as §3

MRC-5 cells = assay: MTT cytotoxicity, MRC-5 normal cells; format: cell-based
Procedure: as §3

HepG2 cells = assay: MTT cytotoxicity, HepG2; format: cell-based; settings: read-out: Cancer Cells IC50, HepG2
Procedure: as §3

LO2 cells = assay: MTT cytotoxicity, LO2 normal cells; format: cell-based
Procedure: as §3

cleaved PARP = assay: Western blot of cleaved PARP; format: cell-based, human; settings: HGC-27 cells, different times and concentrations, 24 h
Procedure: as §4

## 4-(2-Chlorophenyl)-1-(2-(6-methoxynaphthalen-2-yl)-6-methylnicotinoyl)semicarbazide [Compound 9h]
HeLa cells
  IC50: 4.12 ± 0.08 µM
HGC-27 cells [1]
  Effect on cell cycle: induced cell cycle blockage in G2-M phase
Nur77 [2]
  Nur77 nuclear export: significantly induced Nur77 nuclear export
A875 cells
  IC50: > 50 µM
HGC-27 cells [3]
  IC50: 1.4 ± 0.11 µM
A549 cells
  IC50: 7.3 ± 0.21 µM
Nur77 [4]
  Nur77 expression: induced Nur77 expression
MDA-MB231 cells
  IC50: 4.3 ± 0.33 µM
HGC-27 cells [5]
  Colony formation of HGC-27 cells: completely inhibited colony formation
MCF-7 cells
  IC50: 3.3 ± 0.21 µM
H460 cells
  IC50: 9.2 ± 0.24 µM
MRC-5 cells
  IC50: > 50 µM
HepG2 cells
  IC50: 5.1 ± 0.01 µM
LO2 cells
  IC50: > 50 µM
Cleaved PARP
  PARP cleavage: induce the PARP cleavage in a dose-dependent and time-dependent manner
